{"source": "patent US20180313843A1", "about": "“SAMHD1 MODULATION FOR TREATING RESISTANCE TO CANCER THERAPY” (priority 2015, published 2018)", "key": {"THP-1 −/−": {"tested_on": "THP-1 −/−", "test": "Cell viability, Ara-C with or without 3-DU and other NAs, SAMHD1 knock-out", "assay_type": "cell-based, human", "procedure": "THP-1 CRISP/Cas9 control and SAMHD1 knock-out cells were provided by Prof. Veit Hornung and cultivated in RPMI supplemented with 10% FCS, 100 IU/ml penicillin, and […] streptomycin. PDX cells were thawed and cultivated as previously described (Vick, 2015).\n(§1) Cell viability assay. Cell viability of the AML cell lines and primary AML cultures were determined by the 3-(4,5-dimethylthiazol-2-yl)-2,5-diphenyltetrazolium bromide (MTT) dye reduction assay after 96 hour incubation as described previously (reference 7). Due to lower cell proliferation frequencies of the primary cells the CellTiter-Glo® Luminescent Cell Viability Assay (Promega) was used according to manufacturer's instruction. Here, the number of viable cells was determined 96 hours post treatment based on the quantification of the ATP levels."}, "HEL SAMHD1 wt": {"tested_on": "HEL SAMHD1 wt", "test": "Cell viability, Ara-C with or without 3-DU, SAMHD1 wt over-expression", "assay_type": "cell-based, human", "settings": "for dependence of anti-leukemic activity on expression levels of SAMHD1: THP-1 (−/−) vs (+/+), AML panel and HEL versus HEL SAMHD1 wt cells"}, "[1]": {"tested_on": "HELrAra-C, HL-60rAra-C and Molm-13rAra-C", "test": "Cytarabine cytotoxicity in Ara-C resistant AML sublines", "assay_type": "cell-based, human", "procedure": "Ara-C resistant cell lines THP-1, HEL, HL-60, Molm13, and Molt4 were established by continuous exposure to increasing drug concentrations and are part of the Resistant Cancer Cell Line (RCCL) collection (http://www.kent.ac.uk/stms/cmp/RCCL/RCCLabout). The generation of resistant cell lines required 1 to 2 years, depending on the cell line used. All cell lines were maintained in IMDM supplemented with 10% FCS (SIG-M5 20% FCS), […] L-Glutamine, 100 IU/ml penicillin, and […] streptomycin at 37° C. in a humidified 5% CO2 incubator. 293T cells were maintained as previously described (Keppler et al).\nas §1\nRemarkably, expression levels of SAMHD1 were increased in resistant cells relative to the parental cell lines (FIGS. 8A and B)."}, "SIG-M5 cells": {"tested_on": "SIG-M5 cells", "test": "Cytarabine toxicity after SAMHD1 shRNA knock-down", "assay_type": "cell-based, human", "settings": "SIG-M5, SAMHD1 shRNA compared to control shRNA"}, "OCI-AML3 shSAMHD1": {"tested_on": "OCI-AML3 shSAMHD1", "test": "Cell viability, Ara-C with or without 3-DU, SAMHD1 knock-down", "assay_type": "cell-based, human", "settings": "OCI-AML-3, SAMHD1 shRNA compared to control shRNA"}, "THP-1 cells": {"tested_on": "THP-1 cells", "test": "Cytotoxic effects of cytarabine in VLP-treated THP-1 cells", "assay_type": "cell-based, human", "settings": "Vpx-VLPs treated THP-1 cells"}, "glioma cell line U251-MG": {"tested_on": "glioma cell line U251-MG", "test": "Effect of Vpx-VLPs on cytotoxic activity of cytarabine in glioma cells", "assay_type": "cell-based", "settings": "U251-MG treated with Vpx-VLPs"}, "BFTC 905": {"tested_on": "BFTC 905", "test": "Ara-C/SAMHD1-inhibitor combination treatment, urothelial carcinoma cells", "assay_type": "cell-based", "settings": "Homo sapiens, BFTC-905, read-out: IC50 value Ara-C"}, "AML cell lines": {"tested_on": "AML cell lines", "test": "Cell viability assay (MTT), cytarabine in panel of AML cell lines", "assay_type": "cell-based", "settings": "Homo sapiens, read-out: IC50 values (concentrations inhibiting 50% of cell growth) of cytarabine; range over AML cell lines", "procedure": "as §1"}, "[2]": {"tested_on": "THP-1 (−/−) and THP-1 (+/+) cells", "test": "Cytarabine triphosphate measurement by liquid chromatography tandem mass spectrometry", "assay_type": "cell-based, human", "settings": "10 μg/ml cytarabine for 6 h", "method": "dNTP measurement. […] Subsequently, cells were washed twice in 1×PBS, pelleted and stored at −20° C. until measurement. The samples were analyzed at the Institute of Clinical Pharmacology (Goethe University Frankfurt) by liquid chromatography-electrospray ionization-tandem mass spectrometry as previously described (reference 8).\nBriefly, the analytes were extracted by protein precipitation with methanol. An anion exchange HPLC column (BioBasic AX, Thermo) was used for the chromatographic separation and a 5500 QTrap (Sciex, Darmstadt, Germany) was used as analyzer, operating as triple quadrupole in positive multiple reaction monitoring (MRM) mode. Additional to the analytes reported in the publication, 13C3-Ara-CMP, 13C3-Ara-CDP and 13C3-Ara-CTP were quantified using the validated method and cytidine-^13C9, ^15N3-5′-triphosphate as internal standard (IS). The precursor-to-product ion transitions used as quantifiers were m/z 327.0→115.1 for 13C3-Ara-CMP, m/z 407.0→115.1 for 13C3-Ara-CDP and m/z 487.0→115.1 for 13C3-Ara-CTP. A calibration curve was constructed for the quantitation of 13C3-Ara-CMP while no calibration standards were commercially available for 13C3-Ara-CDP and 13C3-Ara-CTP. For this reason, these analytes were quantified semiquantitatively by comparing the peak area ratios (analyte/IS) determined in the differently treated samples."}, "SAMHD1": {"target": "T1, SAMHD1 (Homo sapiens, UniProt Q9Y3Z3)", "T1 construct": "made in house", "T1 sequence (Q9Y3Z3 whole entry)": "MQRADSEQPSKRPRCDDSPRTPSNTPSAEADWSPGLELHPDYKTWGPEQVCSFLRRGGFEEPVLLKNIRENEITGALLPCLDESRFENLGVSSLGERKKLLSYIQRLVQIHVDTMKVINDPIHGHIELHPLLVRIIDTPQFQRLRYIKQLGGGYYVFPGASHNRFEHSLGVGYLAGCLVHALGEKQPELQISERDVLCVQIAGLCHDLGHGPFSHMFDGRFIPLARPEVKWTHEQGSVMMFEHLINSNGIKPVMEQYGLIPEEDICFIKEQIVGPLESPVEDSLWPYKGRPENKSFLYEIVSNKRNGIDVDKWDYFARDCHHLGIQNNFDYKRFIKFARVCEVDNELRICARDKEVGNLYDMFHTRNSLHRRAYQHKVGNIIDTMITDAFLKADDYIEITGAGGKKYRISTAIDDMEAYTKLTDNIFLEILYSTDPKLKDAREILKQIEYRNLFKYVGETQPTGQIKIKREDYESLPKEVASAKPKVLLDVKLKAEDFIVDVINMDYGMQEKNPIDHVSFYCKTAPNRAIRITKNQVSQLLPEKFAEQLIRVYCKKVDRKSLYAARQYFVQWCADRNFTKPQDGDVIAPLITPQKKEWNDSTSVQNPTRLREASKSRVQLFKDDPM", "test": "Enzymatic in vitro assay with bacterially expressed SAMHD1 protein (triphosphohydrolase activity)", "assay_type": "biochemical", "settings": "dGTP used as activator of SAMHD1", "from_the_text": "SAMHD1 hydrolyzes intracellular dNTPs resulting in a reduction of intracellular dNTP pools."}, "[3]": {"tested_on": "intracellular Ara-CTP, CTP and dCTP levels", "test": "Effect of 3-DU and Ara-C on intracellular triphosphate levels", "assay_type": "cell-based", "settings": "3-DU treatment in combination with Ara-C", "procedure": "dNTP measurement. 5×10^5 cells were treated with 10 μg/ml Ara-C 13C3 (Santa Cruz) and incubated at 37° C. in a humidified 5% CO2 incubator for 6 hours. Subsequently, cells were washed twice in 1×PBS, pelleted and stored at −20° C. until measurement. The samples were analyzed at the Institute of Clinical Pharmacology (Goethe University Frankfurt) by liquid chromatography-electrospray ionization-tandem mass spectrometry as previously described (reference 8).\nBriefly, the analytes were extracted by protein precipitation with methanol. […] Additional to the analytes reported in the publication, 13C3-Ara-CMP, 13C3-Ara-CDP and 13C3-Ara-CTP were quantified using the validated method and cytidine-^13C9, ^15N3-5′-triphosphate as internal standard (IS). The precursor-to-product ion transitions used as quantifiers were m/z 327.0→115.1 for 13C3-Ara-CMP, m/z 407.0→115.1 for 13C3-Ara-CDP and m/z 487.0→115.1 for 13C3-Ara-CTP. A calibration curve was constructed for the quantitation of 13C3-Ara-CMP while no calibration standards were commercially available for 13C3-Ara-CDP and 13C3-Ara-CTP. For this reason, these analytes were quantified semiquantitatively by comparing the peak area ratios (analyte/IS) determined in the differently treated samples. […]"}}}
{"compound": "Nc1nc(F)nc2c1ncn2[C@@H]1O[C@H](CO)[C@@H](O)[C@@H]1O", "note": "[fludarabine]", "values": [{"measurement": "IC50 lower in THP-1 (−/−) cells than in THP-1 (+/+) cells", "setting": "THP-1 −/−", "result": 5, "unit": "fold"}]}
{"compound": "COc1nc(N)nc2c1ncn2[C@@H]1O[C@H](CO)[C@@H](O)[C@@H]1O", "note": "[nelarabine]", "values": [{"measurement": "IC50 lower in THP-1 (−/−) cells than in THP-1 (+/+) cells", "setting": "THP-1 −/−", "result": 5, "unit": "fold"}, {"measurement": "dependence of anti-leukemic activity on expression levels of SAMHD1", "setting": "HEL SAMHD1 wt", "result": "depends on expression levels of SAMHD1 albeit to a lesser extent than for cytarabine"}]}
{"compound": "Nc1nc2c(ncn2[C@@H]2O[C@H](CO)[C@@H](O)[C@@H]2O)c(=O)[nH]1", "note": "[Ara-G]", "values": [{"measurement": "dependence of anti-leukemic activity on expression levels of SAMHD1", "setting": "HEL SAMHD1 wt", "result": "depends on expression levels of SAMHD1 albeit to a lesser extent than for cytarabine"}]}
{"compound": "Nc1nc(Cl)nc2c1ncn2[C@@H]1O[C@H](CO)[C@@H](O)[C@@H]1F", "note": "[clofarabine]", "values": [{"measurement": "IC50 lower in THP-1 (−/−) cells than in THP-1 (+/+) cells", "setting": "THP-1 −/−", "result": 2, "unit": "fold"}, {"measurement": "dependence of anti-leukemic activity on expression levels of SAMHD1", "setting": "HEL SAMHD1 wt", "result": "depends on expression levels of SAMHD1 albeit to a lesser extent than for cytarabine"}]}
{"compound": "Nc1ccn([C@@H]2O[C@H](CO)[C@@H](O)[C@@H]2O)c(=O)n1", "note": "[Ara-C, cytarabine]", "values": [{"measurement": "IC50", "setting": "[1]; Homo sapiens, read-out: IC50 values of cytarabine, range over highly resistant sublines of HEL, HL-60 and MOLM-13", "result": "24 to 94", "unit": "µg/mL"}, {"measurement": "toxicity of cytarabine after reduction of SAMHD1 levels using Vpx-VLPs", "setting": "[1]; all three cell lines tested", "result": "increased toxicity"}, {"measurement": "increase of cytarabine toxicity by SAMHD1 knock-down", "setting": "SIG-M5 cells", "result": "~9", "unit": "fold"}, {"measurement": "increase of cytarabine toxicity by SAMHD1 knock-down", "setting": "OCI-AML3 shSAMHD1", "result": "about 6 fold"}, {"measurement": "increase of cytarabine toxicity in SAMHD1 knock-out cells", "setting": "THP-1 −/−; THP-1 (−/−) relative to control THP-1 (+/+)", "result": "about 50 fold"}, {"measurement": "increase of cytarabine's anti-leukemic activity", "setting": "THP-1 cells", "result": "about 20 fold"}, {"measurement": "enhancement of the anti-tumoral activity of cytarabine", "setting": "glioma cell line U251-MG", "result": "up to 10 fold"}, {"measurement": "decrease of sensitivity to cytarabine by wt SAMHD1 over-expression", "setting": "HEL SAMHD1 wt; HEL wt SAMHD1 compared to parental HEL or HEL SAMHD1 D207N", "result": "about 70 fold"}, {"measurement": "IC50", "setting": "BFTC 905", "result": 0.021, "unit": "µg/mL"}, {"measurement": "IC50", "setting": "AML cell lines", "result": "0.0078 to 0.56", "unit": "µg/mL"}, {"measurement": "cytarabine triphosphate amounts accumulated, THP-1(−/−) compared with THP-1(+/+)", "setting": "[2]", "result": "About 20 fold"}]}
{"compound": "cytarabine triphosphate", "values": [{"measurement": "substrate or activator of SAMHD1's triphosphohydrolase activity", "setting": "SAMHD1", "result": "direct substrate, but not as an activator"}]}
{"compound": "O=C1C=CN([C@@H]2O[C@H](CO)[C@@H](O)[C@H]2O)C(=O)C1", "note": "[3-DU, 3-deazauridin]", "values": [{"measurement": "intracellular Ara-CTP levels", "setting": "[3]", "result": "strongly increased"}, {"measurement": "intracellular cytodine-triphosphate (CTP) and dCTP levels", "setting": "[3]", "result": "reducing"}]}
